In brackets after ≈: the same amount, converted by molar mass. Several values for one entry are separate records, joined by “and”; a condition that tells them apart may be missing. Identical values can stand only once. Entries after “also recorded” stand apart in the source; their conditions may differ. Like-named read-outs stand apart in the source and are kept apart here. One block for each compound: values may come before it.
What was measured:
[1] = system: activity-regulated Gln/MeAIB transport (SNAT activity) in hippocampal neurons; assay: Activity-regulated (spontaneous, 4-AP- or K+-stimulated) [14C]-MeAIB transport in primary hippocampal neurons; format: cell-based, rat; parameters: block of transport activity: dose or concentration left out as unconfirmed; settings: for inhibition of spontaneous activity-regulated 14C-MeAIB transport, in words: screens, 10 μM, GABA 2 mM; for inhibition at 10 µM / IC50: Rattus norvegicus, Hippocampal neuron; for inhibition at 10 µM: read-out: block / inhibition of transport activity; for potency to inhibit activity-regulated MeAIB transport relative to a comparator, in words: spontaneous and 4-AP stimulated transport
KCa2 and NaV channels = settings: cited from earlier work
NaV channels = settings: read-out: IC50s, inhibition of NaV channels; cited from earlier work
[2] = system: small-conductance Ca2+-activated K+ channels; settings: read-out: EC50, activation of small-conductance Ca2+-activated K+ channels; cited from earlier work
[3] = system: delayed-rectifier K+ channels and two-pore K+ channels; settings: cited from earlier work
[4] = system: N- and P/Q-type Ca2+ channels; settings: read-out: IC50, block of N- and P/Q-type Ca2+ channels; cited from earlier work
protein Kinase C = settings: read-out: IC50, inhibition of protein Kinase C; cited from earlier work
NaV1.2 = target: T1, NaV1.2 (Mus musculus, UniProt B1AWN6); assay: NaV currents recorded by whole-cell patch clamp from N1E-115 neuroblastoma cells expressing NaV1.2; format: cell-based
T1 construct: N1E-115 cells that constitutively express NaV1.2; endogenous in cells; host or cells: N1E-115 mouse neuroblastoma cells
T1 sequence (B1AWN6 whole entry): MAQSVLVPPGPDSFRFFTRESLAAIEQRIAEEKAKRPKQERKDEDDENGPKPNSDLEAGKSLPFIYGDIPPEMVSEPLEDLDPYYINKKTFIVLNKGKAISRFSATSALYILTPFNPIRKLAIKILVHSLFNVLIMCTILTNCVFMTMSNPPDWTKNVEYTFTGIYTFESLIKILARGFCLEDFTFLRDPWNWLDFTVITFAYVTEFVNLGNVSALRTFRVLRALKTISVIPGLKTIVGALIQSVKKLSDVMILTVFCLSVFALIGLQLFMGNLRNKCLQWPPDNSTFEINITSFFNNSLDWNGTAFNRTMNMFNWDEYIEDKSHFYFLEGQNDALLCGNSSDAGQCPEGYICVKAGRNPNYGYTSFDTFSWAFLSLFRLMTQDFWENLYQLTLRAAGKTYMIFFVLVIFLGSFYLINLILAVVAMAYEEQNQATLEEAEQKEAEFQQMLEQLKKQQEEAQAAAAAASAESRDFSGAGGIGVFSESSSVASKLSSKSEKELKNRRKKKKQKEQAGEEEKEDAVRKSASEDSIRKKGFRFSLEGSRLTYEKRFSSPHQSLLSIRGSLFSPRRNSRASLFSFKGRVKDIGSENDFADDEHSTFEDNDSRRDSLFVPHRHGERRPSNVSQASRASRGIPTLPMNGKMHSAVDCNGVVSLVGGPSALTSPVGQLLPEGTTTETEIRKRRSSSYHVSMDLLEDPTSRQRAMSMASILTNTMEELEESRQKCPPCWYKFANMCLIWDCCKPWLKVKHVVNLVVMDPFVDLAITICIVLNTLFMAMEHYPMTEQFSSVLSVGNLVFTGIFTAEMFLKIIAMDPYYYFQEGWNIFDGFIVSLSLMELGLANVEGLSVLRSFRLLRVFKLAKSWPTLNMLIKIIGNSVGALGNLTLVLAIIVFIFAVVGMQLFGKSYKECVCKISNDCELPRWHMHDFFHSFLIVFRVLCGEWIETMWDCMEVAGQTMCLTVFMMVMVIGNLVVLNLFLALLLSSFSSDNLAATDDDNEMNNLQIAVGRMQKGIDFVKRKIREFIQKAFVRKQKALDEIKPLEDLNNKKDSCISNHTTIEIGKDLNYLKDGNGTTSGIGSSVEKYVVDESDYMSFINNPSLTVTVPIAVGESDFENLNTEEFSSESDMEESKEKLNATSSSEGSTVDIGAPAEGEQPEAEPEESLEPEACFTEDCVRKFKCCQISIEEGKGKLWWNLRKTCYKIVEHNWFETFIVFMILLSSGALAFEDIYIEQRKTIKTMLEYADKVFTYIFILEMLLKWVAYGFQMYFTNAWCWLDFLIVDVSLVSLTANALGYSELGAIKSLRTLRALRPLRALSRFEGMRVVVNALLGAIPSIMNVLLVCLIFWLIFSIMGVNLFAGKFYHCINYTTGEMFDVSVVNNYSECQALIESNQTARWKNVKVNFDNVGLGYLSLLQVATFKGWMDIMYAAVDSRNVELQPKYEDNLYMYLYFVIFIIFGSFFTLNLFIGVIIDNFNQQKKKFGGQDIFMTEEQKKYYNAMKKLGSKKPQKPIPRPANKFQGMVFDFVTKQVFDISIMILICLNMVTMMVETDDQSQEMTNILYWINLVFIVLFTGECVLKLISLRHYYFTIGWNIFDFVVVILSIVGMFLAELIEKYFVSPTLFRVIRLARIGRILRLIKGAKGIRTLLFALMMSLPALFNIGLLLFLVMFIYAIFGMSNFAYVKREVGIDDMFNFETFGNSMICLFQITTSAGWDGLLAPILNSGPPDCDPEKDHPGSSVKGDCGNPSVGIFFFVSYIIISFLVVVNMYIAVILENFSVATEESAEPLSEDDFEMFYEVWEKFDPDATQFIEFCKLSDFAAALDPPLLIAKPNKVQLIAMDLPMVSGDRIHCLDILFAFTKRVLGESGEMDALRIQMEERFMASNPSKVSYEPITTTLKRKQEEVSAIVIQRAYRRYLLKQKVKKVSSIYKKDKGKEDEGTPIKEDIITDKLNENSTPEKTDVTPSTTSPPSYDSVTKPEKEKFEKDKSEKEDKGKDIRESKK
Excerpt: Cells were held at −80 mV and current elicited by a 0 mV depolarization stepped from a −120 mV conditioning pulse at 0.1 Hz.
Cells transiently (or stably) expressing voltage-gated Na^+ or K^+ channels will be subjected to electrophysiological recording using the whole-cell patch-clamp technique. We will use HEK-293 cell lines stably expressing hNaV1.1, hNaV1.5, hNaV1/7, hNaV1.4, and hKV2.1. […] All cells will be voltage clamped to a holding potential of −90 mV, otherwise specified if held at −120 mV in the case of NaV1.2 use-dependence recording. Na^+ currents will be elicited by 30-ms pulse to 0 mV from −90 mV applied every 10 s. KV2.1 currents will be elicited by 200-ms voltage steps from −90 to 40 mV applied every 10 s.

plasma protein = assay: Plasma protein binding; format: in vitro ADME, rat
Excerpt: Synthesis of SKA-41, SKA-190, SKA-219 and SKA-220 and will validate plasma protein binding with rat plasma using equilibrium dialysis so that we can validate protein binding.

[5] = system: activity-regulated Gln/MeAIB transport (SNAT activity) in hippocampal neurons; settings: read-out: Km of the activity-regulated Gln/MeAIB transport system; cited from earlier work
SNAT1 or SNAT2 = settings: cited from earlier work
[6] = system: hippocampal neurons of KA-treated rats; assay: KA-induced status epilepticus model, hippocampal neurodegeneration (fluoro-jade B, NeuN); format: in vivo, rat; settings: for neuroprotection against Glu-induced excitotoxicity in the KA model of TLE: rat, in vivo
Excerpt: (§1) In Aim 3, we treat male and female rats with the ‘best’ SKA-41 derivatives before and after injection of kainic acid (KA). The KA-induced status epilepticus (SE) model is a well-validated model of temporal lobe epilepsy (TLE), the major form of human epilepsy. The model allows studying the different stages between SE and the development of TLE including SE, the acute and latent stages of epileptogenesis and chronic epilepsy. The excitotoxin KA causes excessive Glu release in the hippocampus and selective destruction of inhibitory SOM interneurons in the hilus region of the dentate gyrus (DG) and loss of pyramidal neurons in the CA3 (esp), and also CA1 regions. We scaled up synthesis of SKA-41, 219, and SKA-378. The identity of the compounds was confirmed by ^1H- and ^13C-NMR and high-resolution mass spectrometry. Compound purity is determined by HPLC and no compounds with less then 98% purity were used. […] Rats were processed for immunohistochemistry 3 days after KA administration. As expected, we find that KA treatment induces significant neural damage (green cells) in the CA3 pyramidal neuron subfield and in neurons in the hilus (FIG. 20 Panel A), which are SOM containing GABAergic interneurons (not shown). Fluoro jade B is a high affinity fluorescent marker used for the localization of neuronal degeneration. […] In studies, we have also administered SKA-378 (30 mg/kg) one hr after the onset of stage IV seizures (SE), followed by another injection at 4 hr post SE and then once each day for 3 days. We find that SKA-378 is also neuroprotective under these conditions.
as §1, with “with” for “with the ‘best’”, “(esp)” for “(esp),”, “were” for “was”, “We” for “As expected, we”, “23” for “20”, “Fluoro-jade” for “Fluoro jade”

[7] = Max. solubility (Table 1); format: physicochemical
[8] = 4-AP-stimulated (depolarization) [14C]-MeAIB uptake, DIV16, n in brackets, read-out: SNAT Activity IC50, 4-AP
[9] = spontaneous [14C]-MeAIB uptake, DIV 19, n in brackets, read-out: SNAT Activity IC50, Spont

SMILES: Nc1nc2ccc(Cc3ccccc3)cc2s1 [SKA-7]
inhibition of spontaneous activity-regulated 14C-MeAIB transport, in words [1]: active
established ion-channel activity (KCa2 and NaV channels): NaV blockers

SMILES: Nc1nc2ccc(SC(F)(F)F)cc2s1 [SKA-19, 2-amino-6-trifluoromethylthio-benzothiazole, reference compound]
inhibition at 10 µM [1]: ~90%
inhibition of spontaneous activity-regulated 14C-MeAIB transport, in words [1]: active
established ion-channel activity (KCa2 and NaV channels): mixed NaV blockers and KCa activators

SMILES: Nc1nc2ccc(OC(F)(F)F)cc2s1 [riluzole]
IC50 (NaV channels): 1 to 500 µM and 1 to 50 µM
EC50 [2]: 10 to 200 µM and 10 to 20 µM and > 20 µM
IC50 [3]: > 30 µM
concentration inhibiting delayed-rectifier K+ channels and activating two-pore K+ channels [3]: 30 to 100 µM
IC50 [4]: > 40 µM
IC50 (protein Kinase C): > 30 µM
established ion-channel activity (KCa2 and NaV channels): mixed NaV blockers and KCa activators

SMILES: Nc1nc(-c2cccc3ccccc23)c(Br)s1 [drawing 65]
fold difference 4-AP IC50 over Spont IC50 [1]: 2.8 x
IC50 [1, 8]: 5.1 µM
IC50 [1, 9]: 1.8 µM
IC50 (NaV1.2; read-out: Selectivity IC50 Nav1.2): 30 µM
Plasma Protein (plasma protein): > 98%

SMILES: CNC(C)(C)C(=O)O [MeAIB, α-methylaminoisobutyric acid, reference compound]
relative affinity for PMA-induced K+-activity-stimulated Gln/MeAIB transport activity ([1]; PMA 10 min before KCl 60 mM): ~35 µM
Km [5]: 30 µM
affinity of SNAT1 or SNAT2 for MeAIB (SNAT1 or SNAT2): > 0.5 mM

SMILES: Nc1nc2ccc(OC(F)(F)Cl)cc2s1 [SKA-11, reference compound]
inhibition of spontaneous activity-regulated 14C-MeAIB transport, in words [1]: active
established ion-channel activity (KCa2 and NaV channels): mixed NaV blockers and KCa activators

SMILES: Nc1nc2ccc3ccccc3c2s1 [SKA-45]
inhibition of spontaneous activity-regulated 14C-MeAIB transport, in words [1]: active
established ion-channel activity (KCa2 and NaV channels): KCa2 activators

SMILES: Nc1nc(-c2cccc3ccccc23)c(Cl)s1 [SKA-378, 5-Chloro-4-(naphthalen-1-yl)thiazol-2-amine]
potency to inhibit activity-regulated MeAIB transport relative to a comparator, in words [1]: as active as SKA-219 and SKA-220, respectively; also recorded: most potent
neuronal degeneration by fluoro-jade B staining in hippocampus ([6]; 30 mg/kg 30 min before and 30 min after first KA (5 mg/kg/hr x 2 hr i.p.), 3 days after KA): prevents fluoro-jade B staining in all regions of the hippocampus; also recorded: Neurodegeneration is not observed
neuroprotection when given after onset of SE ([6]; 30 mg/kg 1 hr after onset of stage IV seizures, at 4 hr post SE, then once daily for 3 days): neuroprotective
NeuN staining: disorganization and neuron loss in CA3 and hilus ([6]; 30 mg/kg pretreatment, 3 days after KA): prevents the disorganization and cell loss
neuroprotection against Glu-induced excitotoxicity in the KA model of TLE [6]: neuroprotective

fold difference 4-AP IC50 over Spont IC50 [1]: 1.5 x
IC50 [1, 8]: 6.8 µM
IC50 [1, 9]: 4.4 µM
Plasma Protein (plasma protein): > 98%
SMILES: Nc1nc(-c2ccc3ccccc3c2)c(Br)s1 [drawing 66]

SMILES: Nc1nc(-c2cccc3ccccc23)c(Br)s1 [SKA-219, 5-Bromo-4-(1-naphthalenyl)thiazol-2-amine]
block of transport activity [1]: 90%
inhibition at 10 µM [1]: 90%
IC50 ([1]; hippocampal neurons in vitro, 14C-MeAIB 20 μM, read-out: IC50 to inhibit activity-regulated Gln/MeAIB transport): ~2 µM
Active (annotation beside the compound name: active vs inactive derivatives) ([1]; Table 1: SKA-41, and active and inactive derivatives): SKA-219 Active
inhibition of spontaneous activity-regulated 14C-MeAIB transport, in words [1]: blocked spontaneous transport activity; also recorded: inhibited spontaneous transport activity
potency to inhibit activity-regulated MeAIB transport relative to a comparator, in words [1]: as potent as riluzole
less potent to block NaV channels than activity-regulated Gln/MeAIB transport (NaV1.2): > 10 ×
selectivity to inhibit activity-regulated Gln/MeAIB transport over NaV channels (NaV1.2): > 10 fold and 10 fold and ~15 fold
IC50 (NaV1.2; N1E-115 cells, n=12, read-out: IC50 to inhibit NaV1.2): 30 µM
EC50 (NaV1.2; N1E-115 cells, read-out: EC50 concentration to inhibit NaV1.2): ~30 µM
neuroprotection against Glu-induced excitotoxicity in the KA model of TLE [6]: neuroprotective
solubility [7]: 25 µM (≈ 7.63 µg/mL)
